# Laboratory results reported in US20190071416A1, “COMPOUNDS FOR TREATMENT OF CANCER AND EPIGENETICS” (Agency For Science, Technology and Research, priority 2015, published 2019).
# Key:
# Hep G2 cells = test: Soft agar colony formation assay; type: cell-based, human
# Experimental: Hep G2 cells were purchased from ATCC. Hep G2 cells were maintained in Eagle's Minimum Essential Medium (Sigma, Cat No: #M0643) supplemented with 10% Fetal Bovine Serum (Hyclone, Cat No: SV30087.03), 2 mM L-glutamine, 100 units/mL penicillin and 100 μg/mL streptomycin (Life Technologies, Cat No: 10378-016). The soft agar assays were performed in concordance to the ETC approved method report for soft agar assay (ETC document number: RD0019). Briefly, 600 μL of 0.6% agar was added to 24-well plate (Corning, Cat No: 3738) to form the base layer. This is followed by the addition of 500 μL of 0.36% agar middle layer (containing 10′000Hep G2 cells). Lastly, 500 μL of fresh growth medium (containing the corresponding serially diluted compound) was added above the middle layer. The plates were incubated at 37° C. with 5% carbon dioxide in a humidified incubator for 1 to 2 weeks. 70 μL of thiazolyl blue tetrazolium bromide (5 mg/mL, Sigma Cat No: M5655) was added to each well and the plates were incubated at 37° C. for 2 h. Colonies were counted with GelCount® instrument (Oxford Optronix). The colony counts were plotted against compound concentrations using the Graphpad Prism software. In addition, the software was used to perform non-linear curve fitting and the calculation of IC50.
# HepG2 = test: Cell proliferation assay (CellTiter-Glo), HepG2; type: cell-based; details: Homo sapiens, HepG2, 72 h; 3 days
# Experimental: The cell proliferation assays were tested in several cell lines, including HepG2,HCT116, A549, HPAF-II, CFPAC-1,HuH7, SNU398,Hep3B, and HEK293. All cell lines are from ATCC. HepG2, HPAF-II and HEK293 are cultured in Eagle's MEM media supplemented with fetal bovine serum. HCT116 is cultured in McCoy media supplemented with fetal bovine serum. Huh-7 is cultured in DMEM low glucose (1000 mg/L glucose) with 10% FBS, 1% L-Glutamate and 1% Penicillin/Streptomycin. SNU398 is cultured in RPMI with 10% FBS with 1% L-Glutamate and 1% Penicillin/Streptomycin. Hep3B is cultured in Eagle's MEM with 10% FBS, 1% L-Glutamate and 1% Penicillin/Streptomycin. A549 is cultured in RPMI media supplemented with fetal bovine serum while CFPAC-1 is cultured in IMDM media supplemented with fetal bovine serum. All media and serum are purchased from Gibco (Lifetech). All cells were grown in a temperature controlled incubator at 37° C. and 5% CO2.
# Cell proliferation assay was performed using CellTiter-Glo Luminescent Cell Viability Assay (Promega) following manufacturer's instructions. The cell-line of interest was treated with compounds that were serial diluted in its respective media. Plates were incubated for 3 days at 37° C. in 5% CO2. After 3 days, an equal volume of Cell Titer Glo reagent was added. Plates were rocked on a rotator for 2 h. 100 μL of each well were transferred to a 96-well opaque plate, and luminescence emitted was measured with the Tecan Safire II.
structure (smiles),measurement,setting,value
"CCCOC(=O)N1CCN(C(=O)c2ccc3c(Cl)cc(-c4ccccc4)nc3c2)C[C@H]1C [B019, Propyl (R)-4-(4-chloro-2-phenylquinoline-7-carbonyl)-2-methylpiperazine-1-carboxylate]",maximum inhibition,"Hep G2 cells; Hep G2, soft agar",97.2%
same,IC50,"Hep G2 cells; Homo sapiens, HepG2, Hep G2, soft agar",0.23 µM
same,inhibition at 10 µM,"Hep G2 cells; Homo sapiens, HepG2, highest concentration tested (10 μM)",~100%
same,GI50,HepG2,18.9 µM
